Structures are written as SMILES.

Assay [1] concerns DU-145. The assay is described as follows: Cytotoxicity against human DU145 cells after 4 hrs by MTT assay. The settings on record: DU-145, 4 h. The class given is functional. On the technique in general: Tetrazolium assays rely on reduction of a dye to a coloured formazan, in cell work by metabolically active cells.
The subject of assay [2] is HT-29. In words: Cytotoxicity against human HT-29 cells after 4 hrs by MTT assay. The class given is functional. The settings on record: HT-29, 4 h.
In assay [3] the test system is DU-145. The assay is described as follows: Cytotoxicity against human DU145 cells at 10 uM after 4 hrs by MTT assay. It counts as functional. Particulars: DU-145, 4 h; call rule not given here.
Assay [4] deals with HT-29. In words: Cytotoxicity against human HT-29 cells at 10 uM after 4 hrs by MTT assay. It counts as functional. Particulars: HT-29, 4 h.
The target in assay [5] is T1, Aurora kinase A (Homo sapiens, UniProt O14965).
T1 sequence (O14965 whole entry): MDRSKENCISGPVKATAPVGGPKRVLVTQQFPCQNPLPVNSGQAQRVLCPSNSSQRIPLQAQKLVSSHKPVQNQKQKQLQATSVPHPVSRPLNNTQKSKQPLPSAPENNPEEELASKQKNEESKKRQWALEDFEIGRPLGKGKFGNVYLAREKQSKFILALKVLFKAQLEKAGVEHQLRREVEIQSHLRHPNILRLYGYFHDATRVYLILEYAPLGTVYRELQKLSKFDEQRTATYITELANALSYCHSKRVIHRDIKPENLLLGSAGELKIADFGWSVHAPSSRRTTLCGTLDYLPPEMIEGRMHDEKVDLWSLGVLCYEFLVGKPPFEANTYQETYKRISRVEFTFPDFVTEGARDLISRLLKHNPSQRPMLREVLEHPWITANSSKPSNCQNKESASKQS
The assay is described as follows: Inhibition of human recombinant His-tagged Aurora A kinase expressed in insect cells.

The GI50 is the concentration giving 50% growth inhibition. One may read the inhibition as the share of the control response that was lost under treatment. Read a low inhibition as little suppression. In general, IC50 refers to the concentration needed to halve the response being measured. As for `CCOc1ccc(NC(=O)Cn2c(Nc3ccc(OCC)cc3)nc3c2c(=O)[nH]c(=O)n3C)cc1`, the GI50 was more than 100 µM in assay [1] and 7.91 µM in assay [2]. Moreover, the inhibition at 10 µM is 57% in assay [3] and 62% in assay [4]. Besides, the IC50 in assay [5] (read-out: IC50) came out at 98.7 µM.
For `Cc1ccc(NC(=O)C(Cc2ccc(O)cc2)NC(=O)c2ccccc2N)cc1` (stereo unspecified) the same measures were 3.93 µM, 9.48 µM, 87%, 54% and 11.9 µM.
With `CCOc1ccc2nc(NC3=NC(=O)CC(c4ccc(OC)cc4)N3)nc(C)c2c1` (stereo unspecified), the figures for the GI50 in assay [1] and in assay [2] were 4.26 µM and 7.08 µM, respectively. The results for the inhibition at 10 µM in assay [3] and in assay [4] were 84% and 85%, respectively. Also, in assay [5], the IC50 entry is “Not Active”.
In the case of `CCOc1ccc2nc(Nc3nc(O)c4ccccc4n3)nc(C)c2c1`, the figures for the 50% growth inhibitory concentration (GI50) in assay [1] and in assay [2] were 36.9 µM and 29.1 µM, respectively. For the same molecule, the inhibition at 10 µM came to 80% in assay [3] and 89% in assay [4]. The half-maximal inhibitory concentration (IC50) in assay [5] (read-out: IC50) was 16.7 µM.
For `COc1ccc2cc(C(=O)C3CCC(C(C)C(=O)NCCC4=CCCCC4)CC3)[nH]c2c1` (stereo unspecified) the same measures were 15.9 µM, 9.36 µM, 49%, 68% and 86.2 µM.
In the same order, the values of `COc1ccc(-c2cc(C(=O)Nc3ccc(C)cc3C)c3c(-c4ccccc4)[nH]nc3n2)cc1OC` are 2.06 µM, 1.65 µM, 92%, 91% and more than 100 µM.
`CCOc1ccc(NC(=S)N(CCN(CC)CC)Cc2cc3cc4c(cc3[nH]c2=O)OCCO4)cc1` [ASN03776845]: the figures for the GI50 in assay [1] and in assay [2] were 14.1 µM and 6.33 µM, respectively. Moreover, the inhibition at 10 µM is 49% in assay [3] and 78% in assay [4]. Also, the IC50 result in assay [5] is reported as “Not Active”.
Take `Cc1ccc(-c2nnc(Nc3ccc(Oc4ncccc4-c4c[nH]nc4N)cc3)c3ccccc23)cc1`: the IC50 in assay [5] (read-out: IC50) came to 0.06 µM.
In the case of `COc1ccc(OCC(O)Cn2c(N/N=C/c3ccccc3O)nc3c2c(=O)[nH]c(=O)n3C)cc1` (stereo unspecified), the values for the GI50 in assay [1] and in assay [2] were 27.7 µM and 7.94 µM, respectively. The inhibition at 10 µM in assay [3] is 23%; in assay [4] it was 58%. The IC50 in assay [5] (read-out: IC50) was found to be 18.4 µM.
Regarding `CCOc1ccc2cc(CNc3cc(OC)cc(OC)c3)c(=O)[nH]c2c1` [ASN07410292], the GI50 is 5.81 µM in assay [1] and 3.64 µM in assay [2]. Besides, the inhibition at 10 µM in assay [3] amounted to 80%; in assay [4], 88%. For the same molecule, in assay [5], the half-maximal inhibitory concentration (IC50) result was “Not Active”.
For `COc1ccc(N(CC(=O)Nc2cc(Cl)ccc2C)S(=O)(=O)c2c(C)n[nH]c2C)cc1` the same measures were 5.98 µM, 3.98 µM, 74%, 87% and “Not Active”.
Regarding `CC(=O)Nc1cccc(NC(=O)C(=O)NCCc2sc(-c3ccc(Cl)cc3)nc2C)c1`, the figures for the GI50 in assay [1] and in assay [2] were more than 100 µM and 16.5 µM, respectively. The values for the inhibition at 10 µM in assay [3] and in assay [4] were 32% and 54%, respectively. The half-maximal inhibitory concentration (IC50) in assay [5] (read-out: IC50) is more than 100 µM.
On to `COc1ccc2sc(SCC(=O)Nc3ncc(Br)s3)nc2c1`, for which the results for the GI50 in assay [1] and in assay [2] were 17 µM and 2.04 µM, respectively. Further, the inhibition at 10 µM in assay [3] came to 49%; in assay [4] it was 89%. Moreover, the IC50 in assay [5] (read-out: IC50) is more than 100 µM.
`COc1ccc(C(=O)Nc2ccccc2C(=O)NC(Cc2ccc(O)cc2)C(=O)Nc2ccc(C)cc2C)cc1` (stereo unspecified): the values for the GI50 in assay [1] and in assay [2] were 2.73 µM and 5.23 µM, respectively. Further, the inhibition at 10 µM in assay [3] amounted to 90%; in assay [4], 73%. Besides, in assay [5] (read-out: IC50), the IC50 came out at 5.09 µM.
With `CCCOc1ccc(CNC(=O)c2[nH]c3cc(C)ccc3c2Sc2ccccc2)cc1`, the GI50 in assay [1] is 26 µM; in assay [2] it was 5.36 µM. Moreover, the inhibition at 10 µM came to 34% in assay [3] and 64% in assay [4]. Further, the IC50 result in assay [5] is listed as “Not Active”.
For `Cc1ccc(Nc2cc(Nc3ccc(NS(=O)(=O)c4ccccc4F)cc3)nc(C)n2)cc1` the same measures were 23.4 µM, 5.12 µM, 38%, 83% and “Not Active”.

Source of the values: ChEMBL document CHEMBL1641488, “Computational approach to the identification of novel Aurora-A inhibitors” (Bioorg Med Chem, 2011).
